Each block holds one molecule with its values, some of them ahead of it. Active and inactive are the calls of the source. The rule behind the calls is not given here.
What was measured:
[1] = biological target: T1, Prostaglandin E2 receptor EP4 subtype (Homo sapiens, UniProt P35408); test: Antagonist activity at EP4 receptor in LPS-stimulated human whole blood assessed as inhibition of PGE2-induced TNF-alpha reduction preincubated for 30 mins followed by PGE2 addition measured after 24 hrs by ELISA
[2] = biological target: T1, Prostaglandin E2 receptor EP4 subtype; test: Displacement of [3H]-PGE2 from recombinant human EP4 receptor expressed in HEK293 cell membranes after 90 mins by liquid scintillation counting analysis
[3] = biological target: T1, Prostaglandin E2 receptor EP4 subtype; test: Antagonist activity at recombinant human EP4 receptor expressed in HEK293 cells assessed as inhibition of PGE2-stimulated cAMP accumulation by scintillation proximity assay in presence of [125I]-cAMP; assay type: functional, cell-based
[4] = biological target: Cytochrome P450 3A4 (Homo sapiens, UniProt P08684); test: Inhibition of CYP3A4 (unknown origin); assay type: ADME
[5] = biological target: Muscarinic acetylcholine receptor M3 (Homo sapiens) (UniProt P20309); test: Inhibition of human muscarinic M3 receptor at 10 uM relative to control
[6] = biological target: Histamine H1 receptor (Homo sapiens) (UniProt P35367); test: Inhibition of human histamine H1 receptor at 10 uM relative to control
[7] = biological target: 5-hydroxytryptamine receptor 2B (Homo sapiens) (UniProt P41595); test: Inhibition of human 5-HT2B receptor at 10 uM relative to control
[8] = biological target: D(2) dopamine receptor (Homo sapiens) (UniProt P14416); test: Inhibition of human dopamine D2S receptor at 10 uM relative to control
[9] = Solubility of the compound in FedSIF; assay type: physicochemical; conditions: FeSSIF
[10] = biological target: Cytochrome P450 2B6 (Homo sapiens, UniProt P20813); test: Inhibition of CYP2B6 (unknown origin); assay type: ADME
[11] = biological target: L-type calcium channel verapamil binding site (Homo sapiens, UniProt O60840+Q01668+Q13698+Q13936); test: Inhibition of L-type calcium channel verapamil binding site (unknown origin) at 10 uM relative to control; assay type: protein assay
[12] = biological target: Prostaglandin E2 receptor EP3 subtype (Homo sapiens, UniProt P43115); test: Displacement of [3H]-PGE2 from human EP3 receptor by liquid scintillation counting analysis
[13] = biological target: Muscarinic acetylcholine receptor M2 (Homo sapiens) (UniProt P08172); test: Inhibition of human muscarinic M2 receptor at 10 uM relative to control
[14] = Solubility of the compound in SGF; assay type: physicochemical
[15] = biological target: Mu-type opioid receptor (Homo sapiens) (UniProt P35372); test: Inhibition of human mu opioid receptor at 10 uM relative to control
[16] = biological target: Cytochrome P450 2C9 (Homo sapiens, UniProt P11712); test: Inhibition of CYP2C9 (unknown origin); assay type: ADME
[17] = biological target: Beta-1 adrenergic receptor (Homo sapiens) (UniProt P08588); test: Inhibition of human adrenergic beta1 receptor at 10 uM relative to control
[18] = biological target: Adrenergic receptor alpha-1 (Rattus norvegicus) (UniProt P15823+P23944+P43140); test: Inhibition of rat adrenergic alpha1 receptor at 10 uM relative to control
[19] = biological target: Adenosine receptor A3 (Homo sapiens) (UniProt P0DMS8); test: Inhibition of human adenosine A3 receptor at 10 uM relative to control
[20] = Solubility of the compound in FasSIF; assay type: physicochemical
[21] = biological target: Adrenergic receptor alpha-2 (Rattus norvegicus) (UniProt P22086+P19328+P22909); test: Inhibition of rat adrenergic alpha2 receptor at 10 uM relative to control
[22] = species on record: Rattus norvegicus; test: Inhibition of rat chloride channel at 10 uM relative to control
[23] = biological target: Prostaglandin E synthase (Homo sapiens) (UniProt O14684); test: Inhibition of microsomal PGES-1 (unknown origin) up to 62.5 uM
[24] = biological target: T2, Prostaglandin E2 receptor EP2 subtype (Homo sapiens, UniProt P43116); test: Antagonist activity at recombinant human EP2 receptor expressed in CHO cells assessed as inhibition of PGE2-stimulated cAMP accumulation at 1 uM by scintillation proximity assay in presence of [125I]-cAMP; assay type: functional, cell-based
[25] = Clearance in Beagle dog at 10 mg/kg, po and 1 mg/kg, iv; assay type: ADME, organism-based, Canis lupus familiaris; conditions: in vivo
[26] = biological target: T2, Prostaglandin E2 receptor EP2 subtype; test: Displacement of [3H]-PGE2 from human EP2 receptor by liquid scintillation counting analysis
[27] = biological target: Voltage-gated inwardly rectifying potassium channel KCNH2 (Homo sapiens, UniProt Q12809); test: Displacement of [3H]-astemizole from human ERG up to 100 uM
[28] = biological target: L-type calcium channel diltiazem binding site (Homo sapiens, UniProt O60840+Q01668+Q13698+Q13936); test: Inhibition of L-type calcium channel diltiazem binding site (unknown origin) at 10 uM relative to control; assay type: protein assay
[29] = biological target: Cytochrome P450 2C8 (Homo sapiens, UniProt P10632); test: Inhibition of CYP2C8 (unknown origin); assay type: ADME
[30] = biological target: T2, Prostaglandin E2 receptor EP2 subtype; test: Agonist activity at recombinant human EP2 receptor expressed in CHO cells assessed as induction of cAMP accumulation at 1 uM after 15 mins by scintillation proximity assay in presence of [125I]-cAMP; assay type: functional, cell-based
[31] = biological target: Cytochrome P450 2C19 (Homo sapiens, UniProt P33261); test: Inhibition of CYP2C19 (unknown origin); assay type: ADME
[32] = biological target: Beta-2 adrenergic receptor (Homo sapiens) (UniProt P07550); test: Inhibition of human adrenergic beta2 receptor at 10 uM relative to control
[33] = biological target: Sodium-dependent noradrenaline transporter (Homo sapiens) (UniProt P23975); test: Inhibition of human NE transporter at 10 uM relative to control
[34] = biological target: Cytochrome P450 1A2 (Homo sapiens, UniProt P05177); test: Inhibition of CYP1A2 (unknown origin); assay type: ADME
[35] = Plasma concentration in Beagle dog at 10 mg/kg, po measured over 12 hrs; assay type: ADME, organism-based, Canis lupus familiaris
[36] = Plasma concentration in Beagle dog at 10 mg/kg, po measured over 24 hrs; assay type: ADME, organism-based, Canis lupus familiaris
[37] = biological target: D(1A) dopamine receptor (Homo sapiens) (UniProt P21728); test: Inhibition of human dopamine D1 receptor at 10 uM relative to control
[38] = Oral bioavailability in Beagle dog at 10 mg/kg; assay type: ADME, organism-based, Canis lupus familiaris; conditions: in vivo
[39] = biological target: Prostaglandin E2 receptor EP1 subtype (Homo sapiens, UniProt P34995); test: Displacement of [3H]-PGE2 from human EP1 receptor by liquid scintillation counting analysis
[40] = Tmax in Beagle dog at 10 mg/kg, po; assay type: ADME, organism-based, Canis lupus familiaris; conditions: in vivo
[41] = biological target: Cytochrome P450 2D6 (Homo sapiens, UniProt P10635); test: Inhibition of CYP2D6 (unknown origin); assay type: ADME
[42] = biological target: L-type calcium channel dihydropyridine binding site (Homo sapiens, UniProt O60840+Q01668+Q13698+Q13936); test: Inhibition of L-type calcium channel dihydropyridine binding site (unknown origin) at 10 uM relative to control; assay type: protein assay

T2 sequence (P43116 whole entry): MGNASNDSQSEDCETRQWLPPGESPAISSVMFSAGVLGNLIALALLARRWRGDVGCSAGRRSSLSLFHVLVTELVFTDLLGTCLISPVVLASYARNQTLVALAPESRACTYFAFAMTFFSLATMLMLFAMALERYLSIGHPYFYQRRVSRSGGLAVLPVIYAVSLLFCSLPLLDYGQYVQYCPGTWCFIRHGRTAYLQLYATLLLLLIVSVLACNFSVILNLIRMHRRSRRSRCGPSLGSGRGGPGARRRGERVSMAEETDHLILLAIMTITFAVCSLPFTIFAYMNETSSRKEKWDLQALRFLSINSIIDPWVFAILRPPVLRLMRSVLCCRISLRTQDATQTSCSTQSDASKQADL
T1 sequence (P35408 whole entry): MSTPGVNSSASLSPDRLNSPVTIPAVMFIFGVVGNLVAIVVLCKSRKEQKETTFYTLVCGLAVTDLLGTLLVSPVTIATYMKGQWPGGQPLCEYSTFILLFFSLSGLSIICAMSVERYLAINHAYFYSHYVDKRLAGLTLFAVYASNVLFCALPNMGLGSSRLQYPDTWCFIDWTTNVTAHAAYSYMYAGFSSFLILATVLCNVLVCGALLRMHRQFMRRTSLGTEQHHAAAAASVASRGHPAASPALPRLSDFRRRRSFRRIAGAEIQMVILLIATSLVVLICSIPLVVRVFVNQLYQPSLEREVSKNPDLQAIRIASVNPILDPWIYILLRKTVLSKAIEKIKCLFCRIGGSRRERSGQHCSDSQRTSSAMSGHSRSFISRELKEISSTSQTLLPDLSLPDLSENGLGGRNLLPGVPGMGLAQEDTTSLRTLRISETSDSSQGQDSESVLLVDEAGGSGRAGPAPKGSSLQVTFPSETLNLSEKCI
Prostaglandin E2 receptor EP1 subtype, sequence (P34995 whole entry): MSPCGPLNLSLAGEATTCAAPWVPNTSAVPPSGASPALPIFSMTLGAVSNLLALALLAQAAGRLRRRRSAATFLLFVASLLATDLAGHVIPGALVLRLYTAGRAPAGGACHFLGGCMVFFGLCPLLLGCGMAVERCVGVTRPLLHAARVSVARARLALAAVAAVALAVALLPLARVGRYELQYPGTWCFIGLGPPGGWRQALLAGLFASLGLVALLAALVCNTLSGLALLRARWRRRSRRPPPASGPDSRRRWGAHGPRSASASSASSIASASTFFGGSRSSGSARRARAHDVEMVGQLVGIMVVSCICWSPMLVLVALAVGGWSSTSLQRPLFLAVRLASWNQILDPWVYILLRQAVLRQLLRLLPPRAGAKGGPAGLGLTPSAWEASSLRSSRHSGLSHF
Prostaglandin E2 receptor EP3 subtype, sequence (P43115 whole entry): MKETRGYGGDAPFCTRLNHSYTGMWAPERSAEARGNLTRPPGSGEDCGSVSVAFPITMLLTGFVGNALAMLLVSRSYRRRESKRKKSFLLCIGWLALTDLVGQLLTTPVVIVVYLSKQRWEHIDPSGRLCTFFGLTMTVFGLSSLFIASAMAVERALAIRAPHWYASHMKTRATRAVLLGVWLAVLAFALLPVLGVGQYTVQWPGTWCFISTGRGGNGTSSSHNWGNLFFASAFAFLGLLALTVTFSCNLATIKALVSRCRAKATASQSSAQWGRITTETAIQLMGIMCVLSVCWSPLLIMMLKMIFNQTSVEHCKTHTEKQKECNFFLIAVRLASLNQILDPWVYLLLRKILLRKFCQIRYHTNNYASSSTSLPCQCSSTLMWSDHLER
5-hydroxytryptamine receptor 2B (Homo sapiens), sequence (P41595 whole entry): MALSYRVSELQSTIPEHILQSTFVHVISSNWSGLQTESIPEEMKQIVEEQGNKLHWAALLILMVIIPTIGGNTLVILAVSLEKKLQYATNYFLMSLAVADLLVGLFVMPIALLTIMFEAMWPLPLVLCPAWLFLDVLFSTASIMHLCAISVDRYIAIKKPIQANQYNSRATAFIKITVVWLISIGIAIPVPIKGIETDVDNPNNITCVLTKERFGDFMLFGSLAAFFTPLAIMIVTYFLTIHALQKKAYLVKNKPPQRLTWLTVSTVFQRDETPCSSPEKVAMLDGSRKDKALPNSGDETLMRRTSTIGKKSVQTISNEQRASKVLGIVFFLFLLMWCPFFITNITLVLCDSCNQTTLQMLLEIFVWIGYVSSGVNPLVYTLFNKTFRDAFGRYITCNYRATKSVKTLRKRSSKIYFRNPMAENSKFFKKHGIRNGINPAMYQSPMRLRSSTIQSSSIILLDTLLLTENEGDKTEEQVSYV
Prostaglandin E synthase (Homo sapiens), sequence (O14684 whole entry): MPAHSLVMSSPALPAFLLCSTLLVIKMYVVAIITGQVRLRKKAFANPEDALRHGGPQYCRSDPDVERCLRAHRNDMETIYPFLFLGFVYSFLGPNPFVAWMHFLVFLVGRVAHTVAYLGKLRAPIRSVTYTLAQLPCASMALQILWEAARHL
D(2) dopamine receptor (Homo sapiens), sequence (P14416 whole entry): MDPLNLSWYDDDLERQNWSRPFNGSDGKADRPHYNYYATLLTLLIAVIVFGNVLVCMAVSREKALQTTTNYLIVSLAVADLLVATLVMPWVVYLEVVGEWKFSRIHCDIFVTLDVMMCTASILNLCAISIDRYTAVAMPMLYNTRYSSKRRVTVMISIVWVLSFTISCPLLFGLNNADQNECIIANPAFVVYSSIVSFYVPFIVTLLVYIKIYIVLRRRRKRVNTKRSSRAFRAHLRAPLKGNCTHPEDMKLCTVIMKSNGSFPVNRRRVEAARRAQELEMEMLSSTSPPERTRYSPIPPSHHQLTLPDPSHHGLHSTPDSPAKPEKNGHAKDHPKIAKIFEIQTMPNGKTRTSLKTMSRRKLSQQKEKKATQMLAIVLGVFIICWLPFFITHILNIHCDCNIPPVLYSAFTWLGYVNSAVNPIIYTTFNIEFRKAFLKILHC
Muscarinic acetylcholine receptor M2 (Homo sapiens), sequence (P08172 whole entry): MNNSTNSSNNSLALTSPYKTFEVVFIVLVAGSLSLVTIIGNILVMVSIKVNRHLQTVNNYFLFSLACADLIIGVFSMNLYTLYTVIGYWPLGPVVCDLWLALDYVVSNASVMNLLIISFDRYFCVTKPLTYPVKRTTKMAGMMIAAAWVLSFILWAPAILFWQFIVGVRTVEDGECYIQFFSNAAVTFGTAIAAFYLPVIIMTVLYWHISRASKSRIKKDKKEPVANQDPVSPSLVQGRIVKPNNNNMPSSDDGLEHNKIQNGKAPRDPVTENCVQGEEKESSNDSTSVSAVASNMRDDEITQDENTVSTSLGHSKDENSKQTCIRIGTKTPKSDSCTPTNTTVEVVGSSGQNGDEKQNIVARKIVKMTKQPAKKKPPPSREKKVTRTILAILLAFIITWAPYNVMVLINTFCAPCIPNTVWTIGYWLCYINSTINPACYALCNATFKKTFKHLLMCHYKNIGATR
Beta-1 adrenergic receptor (Homo sapiens), sequence (P08588 whole entry, looked up): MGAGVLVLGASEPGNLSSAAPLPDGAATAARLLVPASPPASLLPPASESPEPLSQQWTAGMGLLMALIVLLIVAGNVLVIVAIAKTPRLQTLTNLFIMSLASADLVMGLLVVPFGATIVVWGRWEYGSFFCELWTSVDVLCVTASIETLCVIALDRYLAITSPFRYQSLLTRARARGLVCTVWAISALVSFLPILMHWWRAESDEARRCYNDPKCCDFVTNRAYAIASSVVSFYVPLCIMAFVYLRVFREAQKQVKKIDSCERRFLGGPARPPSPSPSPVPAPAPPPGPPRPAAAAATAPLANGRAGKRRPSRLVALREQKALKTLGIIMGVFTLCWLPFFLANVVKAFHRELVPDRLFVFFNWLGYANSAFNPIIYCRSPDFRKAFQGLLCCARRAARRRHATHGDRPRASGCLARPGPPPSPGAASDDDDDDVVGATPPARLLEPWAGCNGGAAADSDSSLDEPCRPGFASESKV
Sodium-dependent noradrenaline transporter (Homo sapiens), sequence (P23975 whole entry): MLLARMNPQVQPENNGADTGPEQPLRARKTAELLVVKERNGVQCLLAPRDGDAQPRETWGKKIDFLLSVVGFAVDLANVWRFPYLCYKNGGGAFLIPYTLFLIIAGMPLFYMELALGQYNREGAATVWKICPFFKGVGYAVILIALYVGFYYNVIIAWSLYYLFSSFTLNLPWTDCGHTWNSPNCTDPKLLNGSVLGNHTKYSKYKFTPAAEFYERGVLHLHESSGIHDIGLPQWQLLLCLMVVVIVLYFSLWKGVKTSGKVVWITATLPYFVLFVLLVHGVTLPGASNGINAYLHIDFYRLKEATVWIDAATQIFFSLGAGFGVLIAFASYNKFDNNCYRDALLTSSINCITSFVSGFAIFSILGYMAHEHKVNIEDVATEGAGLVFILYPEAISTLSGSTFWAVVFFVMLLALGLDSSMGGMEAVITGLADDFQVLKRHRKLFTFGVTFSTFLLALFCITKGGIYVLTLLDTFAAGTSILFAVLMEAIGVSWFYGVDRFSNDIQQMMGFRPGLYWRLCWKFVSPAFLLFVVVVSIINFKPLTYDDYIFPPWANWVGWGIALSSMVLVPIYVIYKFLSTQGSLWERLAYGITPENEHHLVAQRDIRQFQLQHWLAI
Cytochrome P450 3A4, sequence (P08684 whole entry): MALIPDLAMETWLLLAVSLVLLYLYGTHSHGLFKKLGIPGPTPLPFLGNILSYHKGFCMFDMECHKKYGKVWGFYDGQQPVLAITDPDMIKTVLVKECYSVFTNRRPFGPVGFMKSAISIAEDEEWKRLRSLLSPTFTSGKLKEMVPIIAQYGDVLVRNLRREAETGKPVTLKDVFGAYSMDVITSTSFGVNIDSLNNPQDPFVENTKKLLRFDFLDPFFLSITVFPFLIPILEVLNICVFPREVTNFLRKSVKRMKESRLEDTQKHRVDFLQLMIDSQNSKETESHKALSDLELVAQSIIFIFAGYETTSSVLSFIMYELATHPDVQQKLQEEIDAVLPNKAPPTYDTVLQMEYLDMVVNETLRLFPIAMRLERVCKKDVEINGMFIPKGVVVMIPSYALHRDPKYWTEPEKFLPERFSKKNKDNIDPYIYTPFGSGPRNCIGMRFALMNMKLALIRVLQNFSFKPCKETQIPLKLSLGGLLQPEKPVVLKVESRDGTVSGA

Structure (SMILES): C[C@H](NC(=O)[C@H]1CCCCN1CCOc1ccc(C#N)cc1)c1ccc(C(=O)O)cc1
IC50 [1]: 1.21 µM | IC50 [2]: 0.621 µM | Ki [2]: 0.372 µM | IC50 [3]: 0.0358 µM

Structure (SMILES): CCc1nc2c(C)nc(C)cc2n1-c1ccc(CCNC(=O)NS(=O)(=O)c2ccc(C)cc2)cc1 [GRAPIPRANT]
IC50 [1]: 1.61 µM | IC50 [2]: 0.689 µM

Structure (SMILES): C[C@H](NC(=O)[C@H]1CCCCN1CCOc1ccccc1)c1ccc(C(=O)O)cc1.Cl
IC50 [4]: > 10 µM | inhibition [5]: 7% | inhibition [6]: 7% | inhibition [7]: 10% | inhibition [8]: 13% | solubility [9]: > 2000 µg/mL | IC50 [10]: > 10 µM | inhibition at 10 µM [11]: 5% | IC50 [12]: > 25 µM | Ki [12]: > 12.7 µM | inhibition [13]: -1% | solubility [14]: 1320 µg/mL | inhibition [15]: 1% | IC50 [16]: > 10 µM | inhibition [17]: 6% | inhibition [18]: 1% | inhibition [19]: -9% | solubility [20]: > 2000 µg/mL | inhibition [21]: -6% | inhibition [22]: 6% | inhibition [23]: inactive | inhibition [24]: Active | clearance [25]: 5.2 mL/min/kg | IC50 [26]: 1.63 µM | inhibition (INH) [27]: Not Active | inhibition at 10 µM [28]: -7% | IC50 [29]: > 10 µM | Activity [30]: Active | IC50 [31]: > 10 µM | inhibition [32]: 2% | inhibition [33]: 7% | IC50 [34]: > 10 µM | concentration at 12 h [35]: > 1000 nM | concentration at 24 h [36]: > 100 nM | inhibition [37]: -6% | bioavailability [38]: 81% | IC50 [39]: > 25 µM | Ki [39]: > 17.5 µM | Tmax [40]: 15 min | IC50 [41]: > 10 µM | inhibition at 10 µM [42]: -60%

Continued, values first:

IC50 [1]: 0.586 µM | IC50 [2]: 0.0778 µM | Ki [2]: 0.0448 µM | IC50 [3]: 0.00542 µM
Structure (SMILES): O=C(O)c1ccc(C2(NC(=O)[C@H]3CCCCN3CCOc3ccccc3)CC2)cc1

IC50 [1]: 0.291 µM | IC50 [2]: 0.232 µM | Ki [2]: 0.129 µM | IC50 [3]: 0.0144 µM
Structure (SMILES): CC[C@H](NC(=O)[C@H]1CCCCN1CCOc1ccccc1)c1ccc(C(=O)O)cc1

IC50 [1]: 0.121 µM | IC50 [2]: 0.0718 µM | Ki [2]: 0.0404 µM | IC50 [3]: 0.00287 µM
Structure (SMILES): C[C@H](NC(=O)[C@H]1CCCCN1CCOc1ccc(F)cc1)c1ccc(C(=O)O)cc1

IC50 [1]: 0.899 µM | IC50 [2]: 0.203 µM | Ki [2]: 0.126 µM | IC50 [3]: 0.0181 µM
Structure (SMILES): O=C(O)c1ccc(CNC(=O)[C@H]2CCCCN2CCOc2ccccc2)cc1

Reference: ChEMBL document CHEMBL3600314, “Discovery and characterization of a potent and selective EP4 receptor antagonist” (Bioorg Med Chem Lett, 2015)
